Data taken from patent US4820834A, “Benzodiazepine analogs” (priority 1987, dated 1989).
Like-named read-outs stand apart in the source and are kept apart here.

Key:
CCK receptor (pancreas) = target: T1, CCK receptor (pancreas) (Rattus norvegicus, UniProt P30551); experiment: CCK Receptor Binding (Pancreas): inhibition of ^125 I-CCK-33 binding; set-up: species or system Male Sprague-Dawley rats
T1 construct: The whole pancreas was dissected free of fat tissue and was homogenized; from tissue; host or cells: rat pancreas membranes (Sprague-Dawley)
T1 sequence (P30551 1-444): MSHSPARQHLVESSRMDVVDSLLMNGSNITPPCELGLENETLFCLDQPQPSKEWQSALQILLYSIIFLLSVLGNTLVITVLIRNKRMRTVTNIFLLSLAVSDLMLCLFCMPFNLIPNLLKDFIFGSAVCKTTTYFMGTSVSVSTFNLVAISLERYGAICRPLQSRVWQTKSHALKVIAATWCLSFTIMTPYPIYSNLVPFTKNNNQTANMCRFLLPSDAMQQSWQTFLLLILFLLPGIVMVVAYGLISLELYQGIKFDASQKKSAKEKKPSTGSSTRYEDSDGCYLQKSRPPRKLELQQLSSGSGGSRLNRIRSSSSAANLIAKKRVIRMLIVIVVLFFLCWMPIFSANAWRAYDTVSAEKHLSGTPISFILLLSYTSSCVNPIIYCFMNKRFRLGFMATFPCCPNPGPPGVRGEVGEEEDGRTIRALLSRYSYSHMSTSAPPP
Method: 1. CCK Receptor Binding (Pancreas)
CCK-33 was radiolabeled with ^125 I-Bolton Hunter reagent (2000 Ci/mmole) as described by Sankara et al. (J. Biol. Chem. 254: 9349-9351, 1979). Receptor binding was performed according to Innis and Snyder (Proc. Natl. Acad. Sci. 77: 6917-6921, 1980) with the minor modification of adding the additional protease inhibitors, phenylmethane sulfonyl fluoride and o-phenanthroline.
Male Sprague-Dawley rats (200-350 g) were sacrificed by decapitation. The whole pancreas was dissected free of fat tissue and was homogenized in 20 volumes of ice-cold 50 mM, Tris HCl (pH 7.7 at 25° C.) with a Brinkmann Polytron PT 10. The homogenates were centrifuged at 48,000 g for 10 min. Pellets were resuspended in Tris Buffer, centrifuged as above and resuspended in 200 volumes of binding assay buffer (50 mM Tris HCl, pH 7.7 at 25° C., 5 mM dithiothrietol, 0.1 mM bacitracin, 1.2 mM phenylmethane sulfonyl fluoride and 0.5 mM o-phenanthroline). […] All assays were run in duplicate or triplicate. The reaction mixtures were incubated at 37° C. for 30 minutes and centrifuged in a Beckman Microfuge (4 minutes) immediately after adding 1 ml of ice-cold incubation buffer. The supernatant was aspirated and discarded, pellets were counted with a Beckman gamma 5000. For Scatchard analysis (Ann. N.Y. Acad. Sci. 51: 660, 1949), ^125 I-CCK-33 was progressively diluted with increasing concentrations of CCK-33.

[1] = target: T2, CCK receptor (brain, cerebral cortex) (Cavia porcellus, UniProt H0VZC5); experiment: biochemical; type: binding, Male Hartley guinea pigs
T2 construct: Cerebral cortex was dissected and used as a receptor source; from tissue; host or cells: guinea pig cerebral cortex membranes (male Hartley)
T2 sequence (H0VZC5 1-426): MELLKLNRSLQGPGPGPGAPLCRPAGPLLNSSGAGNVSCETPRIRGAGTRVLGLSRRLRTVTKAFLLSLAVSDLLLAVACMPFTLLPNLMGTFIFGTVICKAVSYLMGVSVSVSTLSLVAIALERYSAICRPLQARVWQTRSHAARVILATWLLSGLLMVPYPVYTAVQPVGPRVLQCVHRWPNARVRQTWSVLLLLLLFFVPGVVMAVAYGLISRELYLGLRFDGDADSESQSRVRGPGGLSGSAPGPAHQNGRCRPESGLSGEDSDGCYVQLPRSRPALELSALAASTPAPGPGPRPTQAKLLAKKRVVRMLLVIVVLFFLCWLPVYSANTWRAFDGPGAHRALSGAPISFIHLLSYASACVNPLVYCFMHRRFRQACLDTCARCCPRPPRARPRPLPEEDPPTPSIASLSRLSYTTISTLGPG
Method in brief: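 Binding of [radiolabeled] CCK-33 measured by gamma counting of centrifuged pellets after 2 h at 25°C. Membranes came from guinea pig brain cortex, suspended in 10 mM HEPES, 5 mM MgCl2, 1 mM EGTA, 0.25 mg/ml bacitracin, 0.4% BSA.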

[2] = target: T3, Gastrin receptor (gastric glands) (Cavia porcellus, UniProt H0VZC5); experiment: Gastrin Receptor Binding in Guinea Pig Gastric Glands; set-up: species or system guinea pig (male Hartley)
T3 construct: The washed guinea pig gastric glands prepared as above were resuspended; from tissue; host or cells: guinea pig gastric mucosal glands (male Hartley)
T3 sequence (H0VZC5 1-426): T2 sequence (H0VZC5 1-426)

[3] = IC50 ^125 I-CCK Pancreas, rat pancreas membranes, ^125 I-CCK-33, 37° C., 30 minutes
[4] = IC50 ^125 I-CCK Brain, guinea pig cerebral cortex, ^125 I-CCK-33, 25° C., 2 hours
[5] = IC50 ^125 I-Gastrin Gastric Glands, 25° C., 30 minutes
[6] = guinea pig cerebral cortex, ^125 I-CCK-33, 25° C., 2 hours, read-out: IC50 ^125 I-CCK Brain
[7] = ^125 I-gastrin, 25° C., 30 minutes, read-out: IC50 ^125 I-Gastrin Gastric Glands
[8] = rat pancreas membranes, ^125 I-CCK-33, 37° C., 30 minutes; read-out: IC50 ^125 I-CCK Pancreas

O=C(CNc1ccccc1)NC1N=C(c2ccccc2F)c2ccccc2NC1=O (racemic) [Example 125, 1,3-Dihydro-3-(RS)-(phenylaminomethylcarbonyl)amino-5-(2-fluorophenyl)-2H-1,4-benzodiazepin-2-one]
IC50 (CCK receptor (pancreas); [3]): 900 nM | IC50 [1, 4]: 100000 nM | IC50 [2, 5]: > 10000 nM

CN1C(=O)C(C(O)c2c[nH]c3ccccc23)N=C(c2ccccc2)c2ccccc21 (racemic) [Example 47, 1,3-Dihydro-3(RS)-[1-hydroxy-1-(3'-indolyl)]methyl-1-methyl-5-phenyl-2H-1,4-benzodiazepin-2-one]
IC50 (CCK receptor (pancreas); [3]): 24000 nM | IC50 [1, 6]: 40000 nM | IC50 [2, 7]: 24000 nM

COc1cccc(NC(=O)NC2N=C(c3ccccc3)c3ccccc3N(CC(=O)N3CCCC3)C2=O)c1 (stereo not drawn) [Example 284, 1-{[3-[(((3-Methoxyphenyl)amino)carbonyl)amino]-2,3-dihydro-2-oxo-5-phenyl-1H-1,4-benzodiazepin-1-yl]acetyl}pyrrolidine]
IC50 (CCK receptor (pancreas); [3]): 17 nM | IC50 [1, 4]: 0.34 nM | IC50 [2, 5]: 0.5 nM

CN1C(=O)[C@@H](NC(=O)c2cc3ccccc3[nH]2)N=C(c2ccccc2F)c2ccccc21 [Example 88, 3(S)-(+)-1,3-Dihydro-5-(2-fluorophenyl)-3-(2-indole-carbonylamino)-1-methyl-2H-1,4-benzodiazepin-2-one]
IC50 (CCK receptor (pancreas); [8]): 0.6 nM | IC50 [1, 4]: 300 nM | IC50 [2, 7]: 27 nM

CN1C(=O)C(NC(=O)Oc2ccc([N+](=O)[O-])cc2)N=C(c2ccccc2F)c2ccccc21 (stereo not drawn) [Example 245, (5-(2-Fluorophenyl)-2,3-dihydro-1-methyl-2-oxo-1H-1,4-benzodiazepin-3-yl)-carbamic acid-4-nitrophenyl ester]
IC50 (CCK receptor (pancreas); [3]): 7200 nM | IC50 [1, 4]: 92000 nM | IC50 [2, 5]: 12000 nM

O=C(O)CCN1C(=O)[C@@H](Cc2c[nH]c3ccccc23)N=C(c2ccccc2F)c2ccccc21 [Example 103, (2-Carboxyethyl)-1,3-dihydro-5-(2-fluorophenyl)-3(R)-(3'-indolyl)methyl-2H-1,4-benzodiazepin-2-one]
IC50 (CCK receptor (pancreas); read-out: IC50 ^125 I-CCK Pancreas; rat pancreas membranes, ^125 I-CCK-33, 37° C., 30 minutes): 1400 nM | IC50 ([1]; read-out: IC50 ^125 I-CCK Brain, guinea pig cerebral cortex, ^125 I-CCK-33, 25° C., 2 hours): 11000 nM | IC50 ([2]; read-out: IC50 ^125 I-Gastrin Gastric Glands, 25° C., 30 minutes): 5800 nM

O=C(NN=C1Nc2ccccc2C(c2ccccc2F)=N[C@@H]1Cc1c[nH]c2ccccc12)c1ccsc1 [Example 35, 1,3-Dihydro-5-(2-fluorophenyl)-3(R)-(3'-indolyl)methyl-2H-1,4-benzodiazepin-2-[N'-(3-thienoyl)]hydrazide]
IC50 (CCK receptor (pancreas); [3]): 10000 nM | IC50 [1, 4]: 15000 nM | IC50 [2, 5]: > 100000 nM

CCOC(=O)CN1C(=O)C(NC(=O)Nc2ccc(Cl)cc2)N=C(c2ccccc2F)c2ccccc21 (stereo not drawn) [Example 194, 3-((((4-Chlorophenyl)amino)carbonyl)amino)-5-(2-fluorophenyl)-2,3-dihydro-2-oxo-1H-1,4-benzodiazepin-1-acetic acid ethyl ester]
IC50 (CCK receptor (pancreas); [8]): 220 nM | IC50 [1, 6]: 1.2 nM | IC50 [2, 7]: 4 nM

CN1C(=O)[C@@H](NC(=O)c2ccc(Br)cc2)N=C(c2ccccc2)c2ccccc21 [Example 92, 3(S)-(-)-1,3-Dihydro-3-(4-bromobenzoylamino)-1-methyl-5-phenyl-2H-1,4-benzodiazepin-2-one]
IC50 (CCK receptor (pancreas); [3]): 4.3 nM | IC50 [1, 4]: 1600 nM | IC50 [2, 7]: 620 nM

CN1CCN(C(=O)CN2C(=O)C(NC(=O)Nc3ccc(Cl)cc3)N=C(c3ccccc3)c3ccccc32)CC1 (stereo not drawn) [Example 237, 1-((3-((((4-Chlorophenyl)amino)carbonyl)amino)-2,3-dihydro-2-oxo-5-phenyl-1H-1,4-benzodiazepin-1-yl)acetyl)-4-methylpiperazine]
IC50 (CCK receptor (pancreas); [8]): 1200 nM | IC50 [1, 6]: 8 nM | IC50 [2, 7]: 2.6 nM

CCCCCc1ccc(C(=O)N[C@H]2N=C(c3ccccc3F)c3ccccc3N(C)C2=O)cc1 [Example 228, (S)-N-(5-(2-Fluorophenyl)-2,3-dihydro-1-methyl-2-oxo-1H-1,4-benzodiazepin-3-yl)-4-pentylbenzamide]
IC50 (CCK receptor (pancreas); [3]): 49 nM | IC50 [1, 4]: 100000 nM | IC50 [2, 5]: 60000 nM

CN1C(=O)[C@@H](NC(=O)c2ccc(C(C)(C)C)cc2)N=C(c2ccccc2F)c2ccccc21 [Example 157, 3(S)-(+)-3-(4-t-Butylbenzoylamino)-1,3-dihydro-5-(2-fluorophenyl)-1-methyl-2H-1,4-benzodiazepin-2-one]
IC50 (CCK receptor (pancreas); [8]): 19 nM | IC50 [1, 6]: 8000 nM | IC50 [2, 7]: 2400 nM

O=C1Nc2ccc(Cl)cc2C(c2ccccc2)=N[C@@H]1Cc1cn(-c2ccc([N+](=O)[O-])cc2[N+](=O)[O-])cn1 [Example 55, 7-Chloro-1,3-dihydro-3(R)-[(3'-(2,4-dinitrophenyl)imidazol-5'-yl)-methyl]-5-phenyl-2H-1,4-benzodiazepin-2-one]
IC50 (CCK receptor (pancreas); [3]): 7600 nM | IC50 [1, 6]: 38600 nM | IC50 [2, 7]: 76000 nM

O=C(OC1N=C(c2ccccc2)c2ccccc2NC1=O)c1cc2ccccc2[nH]1 (racemic) [Example 107, 1,3-Dihydro-3-(RS)-(2-indolecarbonyloxy)-5-phenyl-2H-1,4-benzodiazepin-2-one]
IC50 (CCK receptor (pancreas); [3]): 49 nM | IC50 [1, 4]: 50000 nM | IC50 [2, 5]: > 10000 nM

Cc1cccc2c1N(C)C(=O)C(NC(=O)c1cc3ccccc3[nH]1)N=C2c1ccccc1 (stereo not drawn) [Example 289, 3-N-(2,3-Dihydro-1,9-dimethyl-2-oxo-5-phenyl-1H-1,4-benzodiazepin-3-yl)-1H-indole-2-carboxamide]
IC50 (CCK receptor (pancreas); [3]): 0.1 nM | IC50 [1, 6]: 89 nM | IC50 [2, 7]: 660 nM

CC(C)(C)OC(=O)N[C@H](Cc1c[nH]c2ccccc12)C(=O)Nc1ccccc1C(=O)c1ccccc1F [Example 1, 2-N-(Nα-Boc-D-tryptophanyl)amino-2'-fluorobenzophenone]
IC50 (CCK receptor (pancreas); [8]): 67000 nM | IC50 ([1]; read-out: IC50 ^125 I-CCK Brain): > 100000 nM | IC50 [2, 7]: 167000 nM

1-(2-Cyanoethyl)-1,3-dihydro-5-(2-fluorophenyl)-3(R)-(3'-indolyl)methyl-2H- 1,4-benzodiazepin-2-one (A, 85%) and 1-(2-cyanoethyl)-1,3-dihydro-5-(2-fluorophenyl)-3(R)-[1'-(2-cyanoethyl)-3'-indolyl]-methyl-2H-1,4-benzodiazpin-2-one (B, 15%) [Example 102]
IC50 (CCK receptor (pancreas); [8]): 700 nM | IC50 [1, 6]: 30000 nM | IC50 [2, 7]: 12800 nM

CN1C(=O)C(NC(=O)Nc2ccc(Cl)cc2Cl)N=C(c2ccccc2)c2ccccc21 (stereo not drawn) [Example 258, N-(2,4-Dichlorophenyl)-N'-(2,3-dihydro-1-methyl-2-oxo-5-phenyl-1H-1,4-benzodiazepin-3-yl)-urea]
IC50 (CCK receptor (pancreas); [8]): 3 nM | IC50 [1, 4]: 220 nM | IC50 [2, 5]: 60 nM

O=C1Nc2ccccc2C(c2ccccc2F)=NC1NCc1cc2ccccc2[nH]1 (racemic) [Example 124, 1,3-Dihydro-5-(2-fluorophenyl)-3-(RS)-(2-indolylmethyl-amino)-2H-1,4-benzodiazepin-2-one]
IC50 (CCK receptor (pancreas); [3]): 250 nM | IC50 [1, 4]: 100000 nM | IC50 [2, 5]: > 10000 nM
